# Key:
# [1] = test system: fibronectin; test: Fibronectin production and secretion (immunoprecipitation/immunoblot); assay type: cell-based, rat; settings: VSM cells, 400 nM, TGF-β 0.1 to 10 ng/ml
# Method: Immunoprecipitations: VSM cells were grown to confluence. After incubation under appropriate conditions, the cells were washed with ice-cold phosphate-buffered saline and immediately lysed in lysis buffer (20 mM Tris [pH7.5], 150 mM NaCl, 1 mM EDTA, 1 mM EGTA, 1% Triton X-100, 2.5 mM sodium pyrophosphate, 1 mM β-glycerolphosphate, 1 mM Na3VO4, 1 μg/ml Leupeptin, 1 mM PMSF) at 4° C. The cells were scraped off with a rubber spatula and the insoluble material removed by centrifuging at 10,000× g for 10 min at 4° C. Protein concentration was determined by A595, and lysates containing equal amounts of protein were incubated with […] anti-fibronectin antibody at 4° C. overnight. Protein A-Sepharose beads were added and the resulting mixture was incubated for an additional 2 hours at 4° C. The beads were centrifuged in a microfuge for 20 sec, and the pellet was washed 3 times with cold lysis buffer. The supernatant was decanted, gel loading buffer was added to the precipitate, and the solution was boiled for 5 min, and centrifuged. The supernatant was electrophoresed on a 7.5% SDS-polyacrylamide gel with equal volumes of sample per lane. The proteins were electrophoretically transferred to nitrocellulose and probed with fibronectin antibody.
# The p21 influences on matrix protein secretion in VSM cells were determined. […]
# [2] = test system: A431 cells; test: [3H]thymidine incorporation (DNA synthesis) in A431 cells; assay type: cell-based, human
# Method: FIG. 9A-D are bar graphs showing Antisense p21^Waf1/Cip1 oligodeoxynucleotide has no significant effect DNA synthesis in PMA-inhibitable A431 cells, as described in Example II, infra. […] A431 cells were placed in serum-free medium overnight and then stimulated with (A) PDGF-BB (30 ng/ml), (B) 10% serum-containing medium, or (C) PDGF-BB or PMA (100 ng/ml) for another 8 hours before [^3H]-thymidine was added for overnight incubation. (D) A10 VSM cells were transfected with sense and antisense p21^Waf1/Cip1 oligonucleotides as above and treated similarly to (B). DNA synthesis was assessed by [^3H]-thymidine incorporation and is expressed as mean ±s.e.m. of three wells per data point. The absolute counts differ between experiments due to different confluency of the cells. The experiments shown are representative of two separate experiments.
# Cell culture and DNA synthesis: Cultures of A10 and A431 cells were obtained from American Type Culture Collection (Rockville Md), were maintained as described (Weiss et al. 1998, Am. J. Physiol. 274, C1521-C1529), and were used between passages 15 and 24 or 25 and 35, respectively. The cells were growth-arrested by placing them in serum-free quiescence medium, exposed to growth factors as indicated, and [^3H]thymidine incorporation assessed as previously described (Weiss and Nuccitelli, 1992, J. Biol. Chem. 267, 5608-5613).
# This A431 data is in contrast with that obtained in a variety of VSM cell lines, where cell growth was inhibited by similar oligodeoxynucleotide concentrations in cell stimulated with both PDGF-BB and serum (FIG. 9d).
# [3] = test system: α-actin; test: alpha-actin protein level by Western blot in A10 VSM cells; assay type: cell-based, rat
# Method: (§1) Western blots: Cells were grown to confluence in 6 cm culture dishes and serum deprived. After transfection and or treatment with appropriate agonist, the cells were washed with phosphate-buffered saline and lysed in lysis buffer and the supernatant was Western blotted as described (Weiss et al., 1998 Am. J. Physiol., 274, p. C1521-C1529).
# At the times indicated after the overnight incubation (in hours), the medium was changed to quiescence medium and the cells were stimulated with PMA for 4 hours to show maximal p21^Waf1/Cip1 expression (FIG. 6a). The lysates were immunoblotted with (a) p21^Waf1/Cip1 or p27^Kip1 antibody or (b) α-actin antibody. This is likely due to sequence similarity between the two genes, as p21^Waf1/Cip1 shares 43% sequence identity with p27^Kip1 in the cdk/cyclin binding site (residues 27-88), located in the conserved N terminus (Nomura et al., 1997 Gene, 191, p. 211-218; Toyoshima and Hunter, 1994 Cell, 78, p. 67-74).
# Using a random sequence phosphorothioate oligodeoxynucleotide (SEQ. ID NO.:3) as a control, the effect of the antisense oligodeoxynucleotide to p21 (400 nM) on p21 and α-actin protein expression in A10 VSM cells, was examined. The lysates, normalized for protein content, were Western blotted with either p21 or α-actin antibody.
# [4] = test system: Met-1 cells; settings: Weiss et al., Cancer Lett. 2003; cited from earlier work
# [5] = test system: cyclin E/cdk 2; test: Cyclin E immunoprecipitation / cdk 2 immunoblot in A10 VSM cells; assay type: cell-based, rat; settings: PDGF-BB 30 ng/ml
# Method: Cells were transfected with p21^Waf1/Cip1 antisense (SEQ. ID NO.:1) or sense oligodeoxynucleotide (SEQ. ID NO.:2), allowed to grow overnight in serum-free media. After overnight incubation in serum-free medium, the cells were stimulated with PDGF-BB (30 ng/ml) for the times indicated. The cells were subsequently immunoprecipitated with either cyclin D1 or cyclin E and immunoblotted with cdk 4 or cdk 2, respectively.
# [6] = test system: Met-1 cells; test: Growth of Met-1 cells in culture; assay type: cell-based, mouse; settings: transfection
# [7] = test system: p27^Kip1; test: p27Kip1 protein level by Western blot in A10 VSM cells; assay type: cell-based, rat; settings: PMA for 4 hours
# Method: as §1
# To check for specificity of protein inhibition by the antisense p21^Waf1/Cip1 oligodeoxynucleotide (SEQ. ID NO.: 1), protein levels of p21^Waf1/Cip1 and p27^Kip1 after transfection with antisense p21^Waf1/Cip1 oligodeoxynucleotide (SEQ. ID NO.:1) were examined. In these experiments the ability of antisense oligodeoxynucleotides (SEQ. ID NO.:1) to inhibit maximally stimulated CKI expression (see FIG. 4) was assessed. The cells were stimulated with PMA for 4 hours at various times after overnight serum starvation.
# At the times indicated after the overnight incubation (in hours), the medium was changed to quiescence medium and the cells were stimulated with PMA for 4 hours to show maximal p21^Waf1/Cip1 expression (FIG. 6a). The lysates were immunoblotted with (a) p21^Waf1/Cip1 or p27^Kip1 antibody or (b) α-actin antibody. […]
substance,measurement,setting,value
5′-GACATCACCAGGATCGGACAT-3′,TGF-β-mediated fibronectin production and secretion,[1],decreases
same,DNA synthesis upon stimulation with PDGF or serum,[2]; 0 to 400 nM oligodeoxynucleotide,no significant change
same,difference in DNA synthesis between sense and antisense,[2]; up to 800 nM,no difference
same,α-actin protein level,[3]; 400 nM,no effect
same,levels of α-actin,[3]; identical conditions to p21 blot,not altered
same,growth of tumors in a mouse model of breast cancer,[4],attenuates growth of tumors
same,cyclin E/cdk 2 interaction,[5],no change
same,growth of Met-1 cells in culture,[6],did not affect growth
same,p27^Kip1 protein,[7],slight decrease
